The text below walks through data of patent publication US8450266B2 (Ipsen Pharma S.A.S., priority 2008, dated 2013).

Where a SMILES comes first, the peptide text is derived from it. [ ]: non-standard residue; d: D form. The star is where a group is joined. Cyclohexanecarbonyl = O=C(C1CCCCC1)*; Myristoyl = CCCCCCCCCCCCCC(=O)*; Ac6c = NC1(C(=O)O)CCCCC1; Orn = NCCC[C@H](N)C(=O)O; X1 = CCCN1C(=O)CC(*)C1=O; Hexanoyl = CCCCCC(=O)*

The nature of data set [1]: Human plasma half-life assay (LC-MS). In kind it is in vitro ADME. The settings on record: incubated at 37° C., read-out: Human Plasma T½ (converted). The method, boiled down: (§1)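 Aliquots taken from human or rat plasma at time points up to 72 h, quenched with formic acid and acetonitrile, centrifuged. Supernatant analyzed by LC-MS (ESI, positive ion, full scan) on a C8 column with a water/acetonitrile 1% formic acid gradient.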

Data set [2] is described as follows: Rat plasma half-life assay (LC-MS). In kind it is in vitro ADME. The conditions noted are these: incubated at 37° C., read-out: Rat Plasma T½ (converted). The method, boiled down:
as §1

`CCCCCC(=O)NCCC[C@H](NC(=O)[C@H](CCCCN)NC(=O)[C@H](CCC(N)=O)NC(=O)[C@H](C)NC(=O)[C@H](CC(C)C)NC(=O)[C@H](CC(C)C)NC(=O)[C@H](Cc1c[nH]c2ccccc12)NC(=O)[C@H](CC(N)=O)NC(=O)[C@@H](NC(=O)[C@H](Cc1ccccc1)NC(=O)[C@H](CC(=O)O)NC(=O)[C@H](CCC(N)=O)NC(=O)[C@H](CCC(N)=O)NC(=O)[C@H](Cc1c[nH]cn1)NC(=O)[C@@H](NC(=O)[C@H](CCCCN)NC(=O)[C@H](CC(=O)O)NC(=O)[C@H](CCSC)NC(=O)[C@H](C)NC(=O)[C@@H](NC(=O)[C@H](CO)NC(=O)[C@H](Cc1ccc(O)cc1)NC(=O)[C@H](CC(=O)O)NC(=O)[C@H](CO)NC(=O)C1(N)CCCCC1)[C@@H](C)CC)[C@@H](C)CC)C(C)C)C(=O)N[C@@H](CCCCN)C(=O)N[C@@H](CCCCN)C(=O)N[C@@H](CC(N)=O)C(=O)N[C@@H](CC(=O)O)C(=O)N[C@@H](Cc1c[nH]c2ccccc12)C(=O)N[C@@H](CCCCN)C(=O)N[C@@H](Cc1c[nH]cn1)C(=O)N[C@@H](CC(N)=O)C(=O)N[C@H](C(=O)N[C@H](C(=O)N[C@@H](CCC(N)=O)C(=O)O)[C@@H](C)O)[C@@H](C)CC` [Example 17, [A6c^7, Orn^31(N-C(O)-(CH2)4-CH3)]hGIP(7-42)-OH] (H-[Ac6c]SDYSIAMDKIHQQDFVNWLLAQK[Orn](Hexanoyl)KKNDWKHNITQ-OH): the half-life at 0.1 mg/ml in data set [1] is more than 50 h; in data set [2] it was 9.4 h.
Consider `CCCCCCCCCCCCCC(=O)NCCC[C@H](NC(=O)[C@H](CCCCN)NC(=O)[C@H](CCC(N)=O)NC(=O)[C@H](C)NC(=O)[C@H](CC(C)C)NC(=O)[C@H](CC(C)C)NC(=O)[C@H](Cc1c[nH]c2ccccc12)NC(=O)[C@H](CC(N)=O)NC(=O)[C@@H](NC(=O)[C@H](Cc1ccccc1)NC(=O)[C@H](CC(=O)O)NC(=O)[C@H](CCC(N)=O)NC(=O)[C@H](CCC(N)=O)NC(=O)[C@H](Cc1c[nH]cn1)NC(=O)[C@@H](NC(=O)[C@H](CCCCN)NC(=O)[C@H](CC(=O)O)NC(=O)[C@H](CCSC)NC(=O)[C@H](C)NC(=O)[C@@H](NC(=O)[C@H](CO)NC(=O)[C@H](Cc1ccc(O)cc1)NC(=O)[C@H](CC(=O)O)NC(=O)[C@H](CO)NC(=O)C1(NC(C)=O)CCCCC1)[C@@H](C)CC)[C@@H](C)CC)C(C)C)C(=O)N[C@@H](CCCCN)C(=O)N[C@@H](CCCCN)C(=O)N[C@@H](CC(N)=O)C(=O)N[C@@H](CC(=O)O)C(=O)N[C@@H](Cc1c[nH]c2ccccc12)C(=O)N[C@@H](CCCCN)C(=O)N[C@@H](Cc1c[nH]cn1)C(=O)N[C@@H](CC(N)=O)C(=O)N[C@H](C(=O)N[C@H](C(=O)N[C@@H](CCC(N)=O)C(=O)O)[C@@H](C)O)[C@@H](C)CC` [Example 12, [Ac-A6c^7, Orn^31(N-C(O)-(CH2)12-CH3)]hGIP(7-42)-OH] (Ac-[Ac6c]SDYSIAMDKIHQQDFVNWLLAQK[Orn](Myristoyl)KKNDWKHNITQ-OH), for which the half-life at 0.1 mg/mL was 7.3 h in data set [1] and more than 72 h in data set [2].
Take `CCCN1C(=O)CC(SC[C@H](NC(=O)[C@H](CC(=O)O)NC(=O)[C@H](CC(N)=O)NC(=O)[C@H](CCCCN)NC(=O)[C@H](CCCCN)NC(=O)CNC(=O)[C@H](CCCCN)NC(=O)[C@H](CCC(N)=O)NC(=O)[C@H](C)NC(=O)[C@H](CC(C)C)NC(=O)[C@H](CC(C)C)NC(=O)[C@H](Cc2c[nH]c3ccccc23)NC(=O)[C@H](CC(N)=O)NC(=O)[C@@H](NC(=O)[C@H](Cc2ccccc2)NC(=O)[C@H](CC(=O)O)NC(=O)[C@H](CCC(N)=O)NC(=O)[C@H](CCC(N)=O)NC(=O)[C@H](Cc2c[nH]cn2)NC(=O)[C@@H](NC(=O)[C@H](CCCCN)NC(=O)[C@H](CC(=O)O)NC(=O)[C@H](CCSC)NC(=O)[C@H](C)NC(=O)[C@@H](NC(=O)[C@H](CO)NC(=O)[C@H](Cc2ccc(O)cc2)NC(=O)[C@H](CC(=O)O)NC(=O)[C@H](CO)NC(=O)C2(NC(C)=O)CCCCC2)[C@@H](C)CC)[C@@H](C)CC)C(C)C)C(=O)N[C@@H](CCCCN)C(=O)N[C@@H](Cc2c[nH]cn2)C(=O)N[C@@H](CC(N)=O)C(=O)N[C@H](C(=O)N[C@H](C(=O)N[C@@H](CCC(N)=O)C(=O)O)[C@@H](C)O)[C@@H](C)CC)C1=O` (some centres unmarked) [Example 5, [Ac-A6c^7, Cys(Psu)^36]hGIP(7-42)-OH] (Ac-[Ac6c]SDYSIAMDKIHQQDFVNWLLAQKGKKNDC(X1)KHNITQ-OH): the half-life at 0.1 mg/mL in data set [1] was 7.8 h; in data set [2], 8.5 h.
For the molecule `CC[C@H](C)[C@H](NC(=O)[C@H](CO)NC(=O)[C@H](Cc1ccc(O)cc1)NC(=O)[C@H](CC(=O)O)NC(=O)[C@H](CO)NC(=O)[C@@H](NC(=O)[C@H](Cc1ccccc1)NC(=O)[C@@H](NC(=O)CNC(=O)[C@H](CCC(=O)O)NC(=O)CCc1ccc(O)cc1)[C@@H](C)O)[C@@H](C)CC)C(=O)N[C@@H](C)C(=O)NC1(C(=O)N[C@@H](CC(=O)O)C(=O)N[C@@H](CCCCN)C(=O)N[C@H](C(=O)N[C@@H](Cc2c[nH]cn2)C(=O)N[C@@H](CCC(N)=O)C(=O)N[C@@H](CCC(N)=O)C(=O)N[C@@H](CC(=O)O)C(=O)N[C@@H](Cc2ccccc2)C(=O)N[C@H](C(=O)N[C@@H](CC(N)=O)C(=O)N[C@@H](Cc2c[nH]c3ccccc23)C(=O)N[C@@H](CC(C)C)C(=O)N[C@@H](CC(C)C)C(=O)N[C@@H](C)C(=O)N[C@@H](CCC(N)=O)C(=O)N[C@@H](CCCCN)C(=O)NCC(=O)N[C@@H](CCCCN)C(=O)N[C@@H](CCCCN)C(=O)N[C@@H](CC(N)=O)C(=O)N[C@@H](CC(=O)O)C(=O)N[C@@H](Cc2c[nH]c3ccccc23)C(=O)N[C@@H](CCCCN)C(=O)N[C@@H](Cc2c[nH]cn2)C(=O)N[C@@H](CC(N)=O)C(=O)N[C@H](C(=O)N[C@H](C(=O)N[C@@H](CCC(N)=O)C(=O)O)[C@@H](C)O)[C@@H](C)CC)C(C)C)[C@@H](C)CC)CCCCC1` [Example 45, (4Hppa^2, A6c^14)hGIP(2-42)-OH], the figures for the half-life at 0.1 mg/mL in data set [1] and in data set [2] were 64.2 h and 4.3 h, respectively.
For the molecule `CCCN1C(=O)CC(SC[C@H](NC(=O)[C@H](Cc2c[nH]cn2)NC(=O)[C@H](CCCCN)NC(=O)[C@H](Cc2c[nH]c3ccccc23)NC(=O)[C@H](CC(=O)O)NC(=O)[C@H](CC(N)=O)NC(=O)[C@H](CCCCN)NC(=O)[C@H](CCCCN)NC(=O)CNC(=O)[C@H](CCCCN)NC(=O)[C@H](CCC(N)=O)NC(=O)[C@H](C)NC(=O)[C@H](CC(C)C)NC(=O)[C@H](CC(C)C)NC(=O)[C@H](Cc2c[nH]c3ccccc23)NC(=O)[C@H](CC(N)=O)NC(=O)[C@@H](NC(=O)[C@H](Cc2ccccc2)NC(=O)[C@H](CC(=O)O)NC(=O)[C@H](CCC(N)=O)NC(=O)[C@H](CCC(N)=O)NC(=O)[C@H](Cc2c[nH]cn2)NC(=O)[C@@H](NC(=O)[C@H](CCCCN)NC(=O)[C@H](CC(=O)O)NC(=O)[C@H](CCSC)NC(=O)[C@H](C)NC(=O)[C@@H](NC(=O)[C@H](CO)NC(=O)[C@H](Cc2ccc(O)cc2)NC(=O)[C@H](CC(=O)O)NC(=O)[C@H](CO)NC(=O)C2(NC(C)=O)CCCCC2)[C@@H](C)CC)[C@@H](C)CC)C(C)C)C(=O)N[C@H](C(=O)N[C@H](C(=O)N[C@@H](CCC(N)=O)C(=O)O)[C@@H](C)O)[C@@H](C)CC)C1=O` (some centres unmarked) [Example 3, [Ac-A6c^7, Cys(Psu)^39]hGIP(7-42)-OH] (Ac-[Ac6c]SDYSIAMDKIHQQDFVNWLLAQKGKKNDWKHC(X1)ITQ-OH), the half-life at 0.1 mg/mL in data set [1] is 16.4 h; in data set [2] it was 5.6 h.
In the case of `CC[C@H](C)[C@H](NC(=O)[C@H](CO)NC(=O)[C@H](Cc1ccc(O)cc1)NC(=O)[C@H](CC(=O)O)NC(=O)[C@H](CO)NC(=O)C1(NC(C)=O)CCCCC1)C(=O)N[C@@H](C)C(=O)N[C@@H](CCSC)C(=O)N[C@@H](CC(=O)O)C(=O)N[C@@H](CCCCN)C(=O)N[C@H](C(=O)N[C@@H](Cc1c[nH]cn1)C(=O)N[C@@H](CCC(N)=O)C(=O)N[C@@H](CCC(N)=O)C(=O)N[C@@H](CC(=O)O)C(=O)N[C@@H](Cc1ccccc1)C(=O)N[C@H](C(=O)N[C@@H](CC(N)=O)C(=O)N[C@@H](Cc1c[nH]c2ccccc12)C(=O)N[C@@H](CC(C)C)C(=O)N[C@@H](CC(C)C)C(=O)N[C@@H](C)C(=O)N[C@@H](CCC(N)=O)C(=O)N[C@@H](CCCCN)C(=O)N[C@H](Cc1ccc2ccccc2c1)C(=O)N[C@@H](CCCCN)C(=O)N[C@@H](CCCCN)C(=O)N[C@@H](CC(N)=O)C(=O)N[C@@H](CC(=O)O)C(=O)N[C@@H](Cc1c[nH]c2ccccc12)C(=O)N[C@@H](CCCCN)C(=O)N[C@@H](Cc1c[nH]cn1)C(=O)N[C@@H](CC(N)=O)C(=O)N[C@H](C(=O)N[C@H](C(=O)N[C@@H](CCC(N)=O)C(=O)O)[C@@H](C)O)[C@@H](C)CC)C(C)C)[C@@H](C)CC` [Example 25, (Ac-A6c^7, D-2Nal^31)hGIP(7-42)-OH] (HELM PEPTIDE1{[ac].[O=C(C1(N[*:1])CCCCC1)[*:2]].S.D.Y.S.I.A.M.D.K.I.H.Q.Q.D.F.V.N.W.L.L.A.Q.K.[O=C([C@@H](Cc1ccc2ccccc2c1)N[*:1])[*:2]].K.K.N.D.W.K.H.N.I.T.Q}$$$$V2.0), the results for the half-life at 0.1 mg/mL in data set [1] and in data set [2] were more than 50 h and 13.7 h, respectively.
The like results for `CCCN1C(=O)CC(SC[C@H](NC(=O)[C@H](CCCCN)NC(=O)[C@H](CCC(N)=O)NC(=O)[C@H](C)NC(=O)[C@H](CC(C)C)NC(=O)[C@H](CC(C)C)NC(=O)[C@H](Cc2c[nH]c3ccccc23)NC(=O)[C@H](CC(N)=O)NC(=O)[C@@H](NC(=O)[C@H](Cc2ccccc2)NC(=O)[C@H](CC(=O)O)NC(=O)[C@H](CCC(N)=O)NC(=O)[C@H](CCC(N)=O)NC(=O)[C@H](Cc2c[nH]cn2)NC(=O)[C@@H](NC(=O)[C@H](CCCCN)NC(=O)[C@H](CC(=O)O)NC(=O)[C@H](CCSC)NC(=O)[C@H](C)NC(=O)[C@@H](NC(=O)[C@H](CO)NC(=O)[C@H](Cc2ccc(O)cc2)NC(=O)[C@H](CC(=O)O)NC(=O)[C@H](CO)NC(=O)C2CCCCC2)[C@@H](C)CC)[C@@H](C)CC)C(C)C)C(=O)N[C@@H](CCCCN)C(=O)N[C@@H](CCCCN)C(=O)N[C@@H](CC(N)=O)C(=O)N[C@@H](CC(=O)O)C(=O)N[C@@H](Cc2c[nH]c3ccccc23)C(=O)N[C@@H](CCCCN)C(=O)N[C@@H](Cc2c[nH]cn2)C(=O)N[C@@H](CC(N)=O)C(=O)N[C@H](C(=O)N[C@H](C(=O)N[C@@H](CCC(N)=O)C(=O)O)[C@@H](C)O)[C@@H](C)CC)C1=O` (some centres unmarked) [Example 40, [Chc-Ser^8, Cys(Psu)^31]hGIP(8-42)-OH] (Cyclohexanecarbonyl-SDYSIAMDKIHQQDFVNWLLAQKC(X1)KKNDWKHNITQ-OH) were, in that order, 4.1 h and 6.9 h.
